Reference: ChEMBL document CHEMBL6121040, “Synthesis and biological assessment of BUB1B inhibitors for the treatment of clear cell renal cell carcinoma” (Eur J Med Chem, 2025)
Calls of active or inactive are those of the source. The rule behind the calls is not given here.

Target: T1, Mitotic checkpoint serine/threonine-protein kinase BUB1 beta (Homo sapiens, UniProt O60566)
Experiment: Inhibition of recombinant BUB1B (unknown origin) incubated for 60 mins in presence of [gamma-33P]-ATP by microplate scintillation counter analysis
Conditions: not given

T1 sequence (O60566 whole entry): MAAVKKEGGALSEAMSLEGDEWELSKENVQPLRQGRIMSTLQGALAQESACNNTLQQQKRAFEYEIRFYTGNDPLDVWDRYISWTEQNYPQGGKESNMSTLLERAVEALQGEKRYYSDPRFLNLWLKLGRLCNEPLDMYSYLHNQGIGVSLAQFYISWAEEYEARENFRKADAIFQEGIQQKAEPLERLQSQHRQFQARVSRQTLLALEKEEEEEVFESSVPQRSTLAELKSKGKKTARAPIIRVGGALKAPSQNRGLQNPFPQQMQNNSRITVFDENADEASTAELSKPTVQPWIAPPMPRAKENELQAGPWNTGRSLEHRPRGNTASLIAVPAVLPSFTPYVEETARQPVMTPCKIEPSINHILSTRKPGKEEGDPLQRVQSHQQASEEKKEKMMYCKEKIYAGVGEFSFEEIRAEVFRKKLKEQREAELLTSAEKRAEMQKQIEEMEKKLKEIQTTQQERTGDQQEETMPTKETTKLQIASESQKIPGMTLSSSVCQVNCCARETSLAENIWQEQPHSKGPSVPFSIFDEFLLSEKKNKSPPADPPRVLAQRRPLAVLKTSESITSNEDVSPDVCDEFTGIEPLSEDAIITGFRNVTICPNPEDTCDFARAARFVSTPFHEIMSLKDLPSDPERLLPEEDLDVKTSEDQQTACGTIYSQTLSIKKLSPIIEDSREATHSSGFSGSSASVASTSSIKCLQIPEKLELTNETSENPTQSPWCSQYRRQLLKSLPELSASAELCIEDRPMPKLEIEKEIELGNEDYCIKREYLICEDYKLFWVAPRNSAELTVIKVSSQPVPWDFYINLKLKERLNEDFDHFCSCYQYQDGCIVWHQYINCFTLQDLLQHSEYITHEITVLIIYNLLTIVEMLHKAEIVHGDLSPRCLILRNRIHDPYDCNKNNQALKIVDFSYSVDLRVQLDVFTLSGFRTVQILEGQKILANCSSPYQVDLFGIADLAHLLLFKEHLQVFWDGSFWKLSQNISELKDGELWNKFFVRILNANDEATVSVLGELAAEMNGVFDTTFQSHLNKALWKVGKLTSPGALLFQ

Compound	IC50
COc1cc(Nc2ncc(C)c(Nc3cccc(S(=O)(=O)N4CCOCC4)c3)n2)cc(OC)c1OC	9.67 µM
Cc1cnc(Nc2ccc(N3CCN(C)CC3)cc2)nc1Nc1cccc(S(=O)(=O)NC(C)(C)C)c1	67.3 µM
COc1cnccc1Nc1nc(-c2nn(Cc3c(F)cc(OCCO)cc3F)c3ccccc23)ncc1OC	> 100 µM
Cc1cc(Nc2ncc(Cl)c(Nc3ccccc3S(=O)(=O)C(C)C)n2)c(OC(C)C)cc1C1CCNCC1 [CERITINIB]	13.1 µM

Test system: CAKI-1
Experiment: Cytotoxicity against human CAKI-1 cells assessed as cell viability at 10 uM incubated for 1 day by MTT assay relative to control
Type: functional
Conditions: CAKI-1, 24 h, read-out: Activity

Compound	viability at 10 µM
COc1ccccc1NC(=O)N1CCN(c2ccc(Nc3ncc(C)c(Nc4cccc(S(=O)(=O)NC(C)(C)C)c4)n3)cc2)CC1	48.4%
Cc1cnc(Nc2ccc(OCCCN3CCOCC3)cc2)nc1Nc1cccc(S(=O)(=O)NC(C)(C)C)c1	41.9%
COc1cccc(Nc2ncc(C)c(Nc3cccc(S(=O)(=O)NC(C)(C)C)c3)n2)c1OC	78%
Cc1ccc(Nc2ncc(C)c(Nc3cccc(S(=O)(=O)NC(C)(C)C)c3)n2)cc1Nc1nccc(-c2cccnc2)n1	77%
C#CCN1CCN(c2ccc(Nc3ncc(C)c(Nc4cccc(S(=O)(=O)NC(C)(C)C)c4)n3)cc2)CC1	41.2%
Cc1cnc(Nc2ccc(N3CCN(C(=O)N(C)C)CC3)cc2)nc1Nc1cccc(S(=O)(=O)NC(C)(C)C)c1	36.2%
COc1cc(Nc2ncc(C)c(Nc3cccc(S(=O)(=O)N4CCOCC4)c3)n2)cc(OC)c1OC	35.8%
Cc1cnc(Nc2ccc(N3CCN(C)CC3)cc2)nc1Nc1cccc(S(=O)(=O)NC(C)(C)C)c1	43.6%
COc1cnccc1Nc1nc(-c2nn(Cc3c(F)cc(OCCO)cc3F)c3ccccc23)ncc1OC	57.8%

Test system: CAKI-1
Experiment: Cytotoxicity against human CAKI-1 cells assessed as reduction in cell viability incubated for 1 day by MTT assay
Type: functional, cell-based
Conditions: CAKI-1, 24 h

Compound	IC50
COc1cc(Nc2ncc(C)c(Nc3cccc(S(=O)(=O)N4CCOCC4)c3)n2)cc(OC)c1OC	1.83 µM
Cc1cnc(Nc2ccc(N3CCN(C)CC3)cc2)nc1Nc1cccc(S(=O)(=O)NC(C)(C)C)c1	1.5 µM
COc1cnccc1Nc1nc(-c2nn(Cc3c(F)cc(OCCO)cc3F)c3ccccc23)ncc1OC	24.4 µM

Test system: CAKI-1
Experiment: Cytotoxicity against human CAKI-1 cells assessed as cell viability at 10 uM incubated for 3 day by MTT assay relative to control
Type: functional
Conditions: CAKI-1, 72 h, read-out: Activity

Compound	viability at 10 µM
COc1cc(Nc2ncc(C)c(Nc3cccc(S(=O)(=O)N4CCOCC4)c3)n2)cc(OC)c1OC	38.5%
Cc1cnc(Nc2ccc(N3CCN(C)CC3)cc2)nc1Nc1cccc(S(=O)(=O)NC(C)(C)C)c1	18.9%
COc1cnccc1Nc1nc(-c2nn(Cc3c(F)cc(OCCO)cc3F)c3ccccc23)ncc1OC	49.7%

Test system: CAKI-1
Experiment: Cytotoxicity against human CAKI-1 cells assessed as reduction in cell viability at 10 uM by MTT assay
Type: functional, cell-based
Conditions: time 1-3 day

Compound	Activity
COc1cnccc1Nc1nc(-c2nn(Cc3c(F)cc(OCCO)cc3F)c3ccccc23)ncc1OC	Time-dependent-effect

Test system: CAKI-1
Experiment: Induction of apoptosis in human CAKI-1 cells assessed as increase in cleaved PARP level by measuring fold change at 10 uM incubated for 1 day by Western blot analysis (reference value: 1)
Type: functional
Conditions: not given

Compound	fold change (FC)
COc1cc(Nc2ncc(C)c(Nc3cccc(S(=O)(=O)N4CCOCC4)c3)n2)cc(OC)c1OC	10.69
Cc1cnc(Nc2ccc(N3CCN(C)CC3)cc2)nc1Nc1cccc(S(=O)(=O)NC(C)(C)C)c1	24.35
COc1cnccc1Nc1nc(-c2nn(Cc3c(F)cc(OCCO)cc3F)c3ccccc23)ncc1OC	1.23

Test system: CAKI-1
Experiment: Cytotoxicity against human CAKI-1 cells assessed as reduction in cell viability incubated for 3 days by MTT assay
Type: functional, cell-based
Conditions: CAKI-1, 72 h

Compound	IC50
COc1cc(Nc2ncc(C)c(Nc3cccc(S(=O)(=O)N4CCOCC4)c3)n2)cc(OC)c1OC	2.9 µM
Cc1cnc(Nc2ccc(N3CCN(C)CC3)cc2)nc1Nc1cccc(S(=O)(=O)NC(C)(C)C)c1	1.1 µM
COc1cnccc1Nc1nc(-c2nn(Cc3c(F)cc(OCCO)cc3F)c3ccccc23)ncc1OC	10.4 µM

Same assay, conditions: time 3.0 day

Compound	Activity
COc1cc(Nc2ncc(C)c(Nc3cccc(S(=O)(=O)N4CCOCC4)c3)n2)cc(OC)c1OC	Dose-dependent-effect
Cc1cnc(Nc2ccc(N3CCN(C)CC3)cc2)nc1Nc1cccc(S(=O)(=O)NC(C)(C)C)c1	Dose-dependent-effect
COc1cnccc1Nc1nc(-c2nn(Cc3c(F)cc(OCCO)cc3F)c3ccccc23)ncc1OC	Dose-dependent-effect

Test system: CAKI-1
Experiment: Cytotoxicity against human CAKI-1 cells assessed as necrotic cell death incubated for 3 days by LDH assay
Type: functional, cell-based
Conditions: CAKI-1, 72 h

Compound	EC50
COc1cc(Nc2ncc(C)c(Nc3cccc(S(=O)(=O)N4CCOCC4)c3)n2)cc(OC)c1OC	41.2 µM
Cc1cnc(Nc2ccc(N3CCN(C)CC3)cc2)nc1Nc1cccc(S(=O)(=O)NC(C)(C)C)c1	6.6 µM
COc1cnccc1Nc1nc(-c2nn(Cc3c(F)cc(OCCO)cc3F)c3ccccc23)ncc1OC	15.9 µM

Test system: CAKI-1
Experiment: Induction of apoptosis in human CAKI-1 cells assessed as decrease in Bcl-2 protein level by measuring fold change at 10 uM incubated for 1 day by Western blot analysis (reference value: 1)
Type: functional
Conditions: not given

Compound	fold change (FC)
COc1cc(Nc2ncc(C)c(Nc3cccc(S(=O)(=O)N4CCOCC4)c3)n2)cc(OC)c1OC	0.64
Cc1cnc(Nc2ccc(N3CCN(C)CC3)cc2)nc1Nc1cccc(S(=O)(=O)NC(C)(C)C)c1	0.28
COc1cnccc1Nc1nc(-c2nn(Cc3c(F)cc(OCCO)cc3F)c3ccccc23)ncc1OC	1.03

Test system: CAKI-1
Experiment: Induction of apoptosis in human CAKI-1 cells assessed as decrease in Bcl-2 protein level by measuring fold change at IC50 concentration incubated for 1 day by Western blot analysis (reference value: 1)
Type: functional
Conditions: not given

Compound	fold change (FC)
COc1cc(Nc2ncc(C)c(Nc3cccc(S(=O)(=O)N4CCOCC4)c3)n2)cc(OC)c1OC	0.5
Cc1cnc(Nc2ccc(N3CCN(C)CC3)cc2)nc1Nc1cccc(S(=O)(=O)NC(C)(C)C)c1	0.62
COc1cnccc1Nc1nc(-c2nn(Cc3c(F)cc(OCCO)cc3F)c3ccccc23)ncc1OC	0.62

Test system: CAKI-1
Experiment: Induction of apoptosis in human CAKI-1 cells assessed as increase in cleaved caspase-8 protein level at 10 uM incubated for 1 day by Western blot analysis
Type: functional, cell-based
Conditions: not given

Compound	Activity
COc1cc(Nc2ncc(C)c(Nc3cccc(S(=O)(=O)N4CCOCC4)c3)n2)cc(OC)c1OC	Active
Cc1cnc(Nc2ccc(N3CCN(C)CC3)cc2)nc1Nc1cccc(S(=O)(=O)NC(C)(C)C)c1	Active
COc1cnccc1Nc1nc(-c2nn(Cc3c(F)cc(OCCO)cc3F)c3ccccc23)ncc1OC	inactive

Test system: CAKI-1
Experiment: Induction of apoptosis in human CAKI-1 cells assessed as increase in cleaved caspase-3 protein level at 10 uM incubated for 1 day by Western blot analysis
Type: functional, cell-based
Conditions: not given

Compound	Activity
COc1cc(Nc2ncc(C)c(Nc3cccc(S(=O)(=O)N4CCOCC4)c3)n2)cc(OC)c1OC	Active
Cc1cnc(Nc2ccc(N3CCN(C)CC3)cc2)nc1Nc1cccc(S(=O)(=O)NC(C)(C)C)c1	Active
COc1cnccc1Nc1nc(-c2nn(Cc3c(F)cc(OCCO)cc3F)c3ccccc23)ncc1OC	inactive

Test system: CAKI-1
Experiment: Induction of apoptosis in human CAKI-1 cells assessed as increase in cleaved caspase-9 protein level at 10 uM incubated for 1 day by Western blot analysis
Type: functional, cell-based
Conditions: not given

Compound	Activity
COc1cc(Nc2ncc(C)c(Nc3cccc(S(=O)(=O)N4CCOCC4)c3)n2)cc(OC)c1OC	Active
Cc1cnc(Nc2ccc(N3CCN(C)CC3)cc2)nc1Nc1cccc(S(=O)(=O)NC(C)(C)C)c1	Active
COc1cnccc1Nc1nc(-c2nn(Cc3c(F)cc(OCCO)cc3F)c3ccccc23)ncc1OC	inactive

Test system: CAKI-1
Experiment: Induction of apoptosis in human CAKI-1 cells assessed as increase in cleaved PARP level by measuring fold change at IC50 concentration incubated for 1 day by Western blot analysis (reference value: 1)
Type: functional
Conditions: not given

Compound	fold change (FC)
COc1cc(Nc2ncc(C)c(Nc3cccc(S(=O)(=O)N4CCOCC4)c3)n2)cc(OC)c1OC	3.76
Cc1cnc(Nc2ccc(N3CCN(C)CC3)cc2)nc1Nc1cccc(S(=O)(=O)NC(C)(C)C)c1	2.65
COc1cnccc1Nc1nc(-c2nn(Cc3c(F)cc(OCCO)cc3F)c3ccccc23)ncc1OC	2.89

Test system: not listed separately
Experiment: Downregulation of BUB1B protein expression level in human CAKI-1 cells at 10 uM incubated for 1 day by Western blot analysis (Rvb =1)
Type: functional
Conditions: not given

Compound	fold change (FC)
COc1cc(Nc2ncc(C)c(Nc3cccc(S(=O)(=O)N4CCOCC4)c3)n2)cc(OC)c1OC	0.12
Cc1cnc(Nc2ccc(N3CCN(C)CC3)cc2)nc1Nc1cccc(S(=O)(=O)NC(C)(C)C)c1	0.02
COc1cnccc1Nc1nc(-c2nn(Cc3c(F)cc(OCCO)cc3F)c3ccccc23)ncc1OC	0.73

Test system: not listed separately
Experiment: Downregulation of BUB1B protein expression level in human CAKI-1 cells at IC50 concentration incubated for 1 day by Western blot analysis (Rvb =1)
Type: functional
Conditions: not given

Compound	fold change (FC)
COc1cc(Nc2ncc(C)c(Nc3cccc(S(=O)(=O)N4CCOCC4)c3)n2)cc(OC)c1OC	0.22
Cc1cnc(Nc2ccc(N3CCN(C)CC3)cc2)nc1Nc1cccc(S(=O)(=O)NC(C)(C)C)c1	0.14
COc1cnccc1Nc1nc(-c2nn(Cc3c(F)cc(OCCO)cc3F)c3ccccc23)ncc1OC	0.65

Test system: CAKI-1
Experiment: Cytotoxicity against human CAKI-1 cells assessed as necrotic cell death incubated for 1 day by LDH assay
Type: functional, cell-based
Conditions: CAKI-1, 24 h

Compound	IC50
Cc1cnc(Nc2ccc(N3CCN(C)CC3)cc2)nc1Nc1cccc(S(=O)(=O)NC(C)(C)C)c1	23.9 µM

Test system: not listed separately
Experiment: Cytotoxicity against human MRC5 cells assessed as cell viability at 5 uM incubated for 1 day relative to control
Type: toxicity, cell-based
Conditions: read-out: Activity

Compound	viability at 24 h, 5 µM
COc1cc(Nc2ncc(C)c(Nc3cccc(S(=O)(=O)N4CCOCC4)c3)n2)cc(OC)c1OC	70.6%
Cc1cnc(Nc2ccc(N3CCN(C)CC3)cc2)nc1Nc1cccc(S(=O)(=O)NC(C)(C)C)c1	38.8%

Test system: not listed separately
Experiment: Cytotoxicity against human HaCaT cells assessed as cell viability at 5 uM incubated for 1 day relative to control
Type: toxicity, cell-based
Conditions: read-out: Activity

Compound	viability at 24 h, 5 µM
COc1cc(Nc2ncc(C)c(Nc3cccc(S(=O)(=O)N4CCOCC4)c3)n2)cc(OC)c1OC	75.3%
Cc1cnc(Nc2ccc(N3CCN(C)CC3)cc2)nc1Nc1cccc(S(=O)(=O)NC(C)(C)C)c1	39.4%

Test system: not listed separately
Experiment: Cytotoxicity against human MRC5 cells assessed as cell viability at 1 uM incubated for 1 day relative to control
Type: toxicity, cell-based
Conditions: read-out: Activity

Compound	viability at 24 h, 1 µM
COc1cc(Nc2ncc(C)c(Nc3cccc(S(=O)(=O)N4CCOCC4)c3)n2)cc(OC)c1OC	89.2%
Cc1cnc(Nc2ccc(N3CCN(C)CC3)cc2)nc1Nc1cccc(S(=O)(=O)NC(C)(C)C)c1	107%

Test system: not listed separately
Experiment: Cytotoxicity against human HaCaT cells assessed as cell viability at 1 uM incubated for 1 day relative to control
Type: toxicity, cell-based
Conditions: read-out: Activity

Compound	viability at 24 h, 1 µM
COc1cc(Nc2ncc(C)c(Nc3cccc(S(=O)(=O)N4CCOCC4)c3)n2)cc(OC)c1OC	105%
Cc1cnc(Nc2ccc(N3CCN(C)CC3)cc2)nc1Nc1cccc(S(=O)(=O)NC(C)(C)C)c1	76.4%

Target: T1, Mitotic checkpoint serine/threonine-protein kinase BUB1 beta
Experiment: Destabilization of BUB1B in human CAKI-1 cells assessed as reduction in BUB1B protein level at 20 uM preincubated for 1 hrs followed by incubation under 45 degreeC for 3 mins by CETSA analysis (reference value: 1)
Type: cell-based
Conditions: time 63.0 min

Compound	fold change (FC)
COc1cc(Nc2ncc(C)c(Nc3cccc(S(=O)(=O)N4CCOCC4)c3)n2)cc(OC)c1OC	0.65
Cc1cnc(Nc2ccc(N3CCN(C)CC3)cc2)nc1Nc1cccc(S(=O)(=O)NC(C)(C)C)c1	2.19
COc1cnccc1Nc1nc(-c2nn(Cc3c(F)cc(OCCO)cc3F)c3ccccc23)ncc1OC	1.33
